# Entries after “also recorded” stand apart in the source; their conditions may differ. Read-outs that look alike come from different tables or passages of the source.
# How the values were obtained:
# [1] = tested on: AasS-expressing E. coli ΔbioC strain; experiment: AasS-based bypass of biotin synthesis, bacterial viability on M9 agar; format: cell-based, Escherichia coli; details: biotin-deficient M9 medium
# Source text: Fig 4 Integrated evidence for the inhibition of AasS action with E-C7 fatty acid by C10-AMS compound. A. Schematic diagram of AasS-catalyzed ligation of E-C7 with holo-ACP recipient to produce E-C7-ACP. […] A representative photograph of three independent trials was given. C. Relatively-quantitative analysis (for the inhibitory efficacy of C10-AMS on AasS-catalyzed E-C7-ACP production. As for AasS reaction (panel B), unlike the three components that are at constant levels, namely (i) AasS (31.25 nM), (ii) E-C7 (600 μM), and (iii) ACP (3 μg), C10-AMS inhibitor was supplemented at varied ratio in relative to the AasS enzyme (ranging from 0:1, 25:1, 50:1, 100:1, 200:1, 300:1, 400:1, to 500:1). The ImageJ software was applied to measure the relative percentage (%) of E-C7 fatty acylation in each AasS reaction. The resultant graphs were plotted from three independent experiments, in which the output was expressed as means ± SD (standard deviations). D. Schematic diagram for C10-AMS inhibition of AasS-based bypass of biotin requirement by the E. coli ΔbioC biotin auxotroph on the non-permissive condition. […] Log-phase cultures in a series of 10-fold dilution (shown in panel on right hand), were spotted on the x-gal-containing M9 agar plates supplemented with C10-AMS inhibitor at varied levels (0, 50, 100, to 500 μM). The addition of x-gal substrate enabled the occurrence of blue colonies for better photographing, and viable colonies were highlighted with yellow arrows.
# Given that AasS ligates E-C7 fatty acid with holo-ACP, giving E-C7-ACP, an alternative precursor for bacterial biotin synthesis, plasmid-borne aasS expression in ΔbioC biotin auxotroph strain is assumed to overcome the requirement of the primary BioC step [58, 83]. Apart from its WT, three single mutants of AasS (D411A, R426A, and K432A) were examined in vivo, of which the compromised activity is presumably proportional to the varied viability of the ΔbioC reporter strains on the non-permissive M9 growth condition. To test its inhibitory effect, the C10-AMS inhibitor in a series of dilution was supplemented. […]
# AasS [2] = biological target: T1, AasS (Vibrio harveyi, UniProt Q00IB3); experiment: Isothermal titration calorimetry (ITC), wild-type AasS; format: binding; details: for binding to AasS in ITC: negative controls
# Procedure: The assays of Isothermal titration calorimetry (ITC) were conducted to address the stoichiometry of AasS binding to its C10-AMS inhibitor and C10-AMP intermediate. Since both malic acid and pimelic acid are not substrates for AasS, the two dicarboxylic acids were assumed as negative controls in our ITC analysis. Using a micro-calorimeter (MicroCal PEAQ-ITC) as recently described for E-C7 with little change, totally 18 titrations (2 μl each at an internal of 2.5 min) proceeded in the cell at room temperature. Prior to the titration, AasS protein (~40 μM) was saturated with its ATP cofactor (120 μM) in the cell, and C10-AMS inhibitor (or C10) was kept at 600 μM in the syringe. The titration buffer was composed of 150 mM NaCl, 25 mM Tris-HCl (pH8.0), 2 mM DTT, and 3 mM MgCl2. One set of site model by the MicroCal PEAQ-ITC software enabled plotting the titration curves. Next, the stoichiometry (N) and dissociation constant (Kd) were calculated. It was given as an average ± standard deviation (SD) from three independent trials.
# AasS [3] = experiment: In vitro enzymatic activity of AasS (acyl-ACP formation, conformationally-sensitive urea PAGE, ImageJ semi-quantitation); format: biochemical, Vibrio harveyi; details: for activity as substrate of AasS in vitro (ligation with holo-ACP): urea gel; for C10-ACP conversion from C10 substrate, Average: AasS 3 nM, fig. 2E
# AasS(D411A) = experiment: Microscale thermophoresis (MST), AasS(D411A) mutant; format: binding, Vibrio harveyi; details: D411A 180 nM; C10/ATP mixture 0.15 nM to 5.0 μM
# Procedure: (§1) To validate poor binding of AasS(D411A) to C10 fatty acyl adenylate observed in our ITC assays, the relatively-more sensitive approach of microscale thermophoresis (MST) was additionally applied here as Jerabek-Willemsen et al. described with minor alteration. Using the Protein Labeling Kit (Protein Labeling Kit RED-NHS 2nd Generation, Nano Temper Technology), both the wild-type AasS and its D411A mutant were fluorescently labelled in the MST buffer (150 mM NaCl, 25 mM Tris-HCl, 3 mM MgCl2, 0.05% Tween-20, pH 8.0). The ligand C10-AMP used in MST assays was prepared by an equal mixture of C10 and ATP. In general, an NT.115 Monolith instrument (Nano Temper Technology, Germany) was integrated, of which the routine parameters included a RED/LED (20%) excitation power along with 60% laser power for excitation. Then, the protein samples were siphoned into MST Premium Coated capillaries for the determination of binding affinity at room temperature. The final concentrations of different AasS samples were 40 nM for WT, and 180 nM for D411A, respectively. The mixture of C10/ATP was diluted in a gradient (from 0.15 nM to 5.0 μM). Three independent MST experiments were conducted here. The dissociation constants (Kd) were calculated using the software MO. Affinity Analysis v2.3. Of note, this was largely dependent on the KD model with a 1:1 stoichiometry per binding partner.
# AasS [4] = biological target: T1, AasS; experiment: Microscale thermophoresis (MST), wild-type AasS; format: binding; details: AasS 40 nM; C10/ATP mixture 0.15 nM to 5.0 μM
# Procedure: as §1
# [5] = tested on: MenE, an o-succinylbenzoyl-CoA synthetase; details: cited from earlier work
# AasS [6] = biological target: T1, AasS; parameters: method as in PMID 39794554; details: cited from earlier work
# AasS (D411A) = experiment: Isothermal titration calorimetry (ITC), AasS (D411A) mutant; format: binding, Vibrio harveyi
# Procedure: Fig 7 Parallels in binding of AasS to the C10-AMP adenylate intermediate and the C10-AMS inhibitor. Structural visualization for AasS binding an intermediate C10-AMP adenylate (A) and its inhibitor C10-AMS (B). […] C. […] Both AasS enzymatic reaction and conformationally-sensitive gel separation were conducted as described in Fig 2D and 2F. D. In vivo evidence that the three single mutants of AasS (D411A, R426A, and K432A) lose the ability to bypass the physiological requirement of biotin for the bioC isogenic mutant of E. coli on the non-permissive condition. The bacterial viability on M9 defined agar medium was determined as performed in Fig 4E. […] The ITC assays were carried out as we conducted in Fig 3B.
# The assays of Isothermal titration calorimetry (ITC) were conducted to address the stoichiometry of AasS binding to its C10-AMS inhibitor and C10-AMP intermediate. Since both malic acid and pimelic acid are not substrates for AasS, the two dicarboxylic acids were assumed as negative controls in our ITC analysis. Using a micro-calorimeter (MicroCal PEAQ-ITC) as recently described for E-C7 with little change, totally 18 titrations (2 μl each at an internal of 2.5 min) proceeded in the cell at room temperature. […] Next, the stoichiometry (N) and dissociation constant (Kd) were calculated. […]
# T1 sequence (Q00IB3 entry or part of it): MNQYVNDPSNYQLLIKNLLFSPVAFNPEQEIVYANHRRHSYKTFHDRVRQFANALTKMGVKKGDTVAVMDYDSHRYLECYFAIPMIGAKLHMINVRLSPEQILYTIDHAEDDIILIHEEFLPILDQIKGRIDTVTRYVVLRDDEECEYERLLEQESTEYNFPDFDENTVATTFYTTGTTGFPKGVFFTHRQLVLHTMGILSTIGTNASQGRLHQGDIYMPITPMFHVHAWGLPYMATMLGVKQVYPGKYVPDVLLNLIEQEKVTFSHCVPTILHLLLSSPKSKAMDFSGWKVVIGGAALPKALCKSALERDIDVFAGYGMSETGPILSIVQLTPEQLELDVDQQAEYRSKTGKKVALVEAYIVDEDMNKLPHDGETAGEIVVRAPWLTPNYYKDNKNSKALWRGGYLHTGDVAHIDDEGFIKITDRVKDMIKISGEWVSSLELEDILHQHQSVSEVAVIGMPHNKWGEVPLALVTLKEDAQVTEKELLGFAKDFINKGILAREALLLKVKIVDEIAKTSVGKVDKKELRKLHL
structure (smiles),measurement,setting,value
O=C(O)CC(O)C(=O)O (centres unmarked) [malic acid],support of AasS-based biotin bypass as sole carbon source,[1],loss of function in supporting bacterial viability; also recorded: cannot bypass biotin requirement
same,binding to AasS in ITC,AasS [2],none of the two dicarboxylic acids; also recorded: without an ability of binding
same,activity as substrate of AasS in vitro (ligation with holo-ACP),AasS [3],inactive
"CCCCCCCCCC(=O)OP(=O)(O)OCC1OC(n2cnc3c(N)ncnc32)C(O)C1O (centres unmarked) [C10-AMP, decanoyl-adenylate]",stoichiometry (n),AasS [2]; AasS ~40 μM saturated with ATP 120 μM,0.77 ± 0.04
same,Kd,"AasS [2]; AasS ~40 μM saturated with ATP 120 μM, ligand 600 μM in syringe, room temperature, read-out: dissociation constant (Kd)",64.4 ± 5.2 nM
same,binding by AasS(D411A) in MST,AasS(D411A),lose its ability of binding
same,binding by wild-type AasS in MST,AasS [4],efficient binding
Nc1ncnc2c1ncn2[C@@H]1O[C@H](COS(=O)(=O)NC(=O)CCC(=O)c2ccccc2C(=O)O)[C@@H](O)[C@H]1O [OSB-AMS],mode of inhibition of MenE,[5],mixed-type inhibitor
"CCOC(=O)CCCCCC(=O)O [E-C7, mono-ethyl pimelic acid]",binding affinity to AasS,AasS [6],mild affinity
"CCCCCCCCCC(=O)O [C10, decanoic acid]",Kd,AasS [2],54.4 ± 5.1 nM
same,"C10-ACP conversion from C10 substrate, Average",AasS [3]; C10 6 μM,46.1519
same,"C10-ACP conversion from C10 substrate, Average",AasS [3]; C10 12 μM,68.3859
same,"C10-ACP conversion from C10 substrate, Average",AasS [3]; C10 24 μM,90.5892
same,"C10-ACP conversion from C10 substrate, Average",AasS [3]; C10 60 μM,89.8102
same,"C10-ACP conversion from C10 substrate, Average",AasS [3]; C10 120 μM,91.2632
same,"C10-ACP conversion from C10 substrate, Average",AasS [3]; C10 180 μM,91.9374
same,"C10-ACP conversion from C10 substrate, Average",AasS [3]; C10 240 μM,91.9685
same,binding to AasS (D411A) in ITC (words),AasS (D411A),fails to effectively bind
same,binding to AasS (D411A) in ITC (words),AasS (D411A); listed as decanoic acid,does not
O=C(O)CCCCCC(=O)O [pimelic acid],support of AasS-based biotin bypass as sole carbon source,[1],loss of function in supporting bacterial viability; also recorded: Failure of AasS-based biotin bypass
same,binding to AasS in ITC,AasS [2],no binding
same,binding to AasS in ITC,AasS [2]; listed as pimelate,none of the two dicarboxylic acids
same,activity as substrate of AasS in vitro (ligation with holo-ACP),AasS [3],inactive
